Data set [1] in a line: stability of a solution of molecular iodine in mineral oil at 40° C. It is filed as physicochemical. The procedure: The stability of a solution of molecular iodine in oil was measured. Crystals of elemental iodine were dissolved at room temperature in mineral oil. The concentrations of molecular iodine were approximately 0.6, 3.0 and 6.0 mg/mL. The absorbance was determined at 522 nm as a measure of the concentration of molecular iodine. Samples were stored in 500 mL amber glass bottles (Fisher Cat. No. 05-719-466) with Teflon lined screw-tops. The screw tops contained a septum to sample the fluids using a syringe without opening the bottle. The bottles were stored in an incubator at 40° C.
Samples were analyzed monthly to determine if there was a loss of molecular iodine. On the day of an analysis, a bottle was removed from the incubator, placed into room-temperature water covering approximately ¾ of the bottle, and allowed to cool for at least 6 hours. A sample was removed with a glass syringe and its absorbance was determined at 522 nm.

The nature of data set [2]: interaction of molecular iodine with mineral oil, UV-visible absorbance. It is filed as physicochemical. The following applies: elemental iodine dissolved in mineral oil, 300-600 nm. The procedure: The interaction of molecular iodine with mineral oil was evaluated. The following stock solutions were prepared for this experiment: 0.050 grams and 1.001 grams of elemental iodine crystals dissolved into about 80 ml of mineral oil in two different 100-ml flasks, and then filled to 100 ml with mineral oil. The absorbance spectrum between 300 and 600 nm for various mixtures of these two stock solutions were made in a UV/V is scanning spectrophotometer (Schimadzu 1125). The absorbance spectrums were analyzed and the extinction coefficient was calculated at appropriate wavelengths.
The UV-visible spectra of iodine-in-mineral oil presents two peaks in the range of 300-600 nm; one peak is at 302 nm and the other is at 522 nm (the maximum absorbance is at 522 nm). The absorbance is proportional to concentration as predicted by Beer's Law. […] The two peaks are at 302 nm and 522 nm and are slightly variable in the test concentration range. The extinction coefficients (moles per 1000 grams)^−1 (per cm)^−1) at 302 and 522 nm were calculated to be 219 and 905 respectively.

The subject of a further data set is women. In words: six month study of molecular iodine in 111 women (IND #56,523). Conditions: 111 women, 0, 1.5, 3.0 or 6.0 mg per day for six months, in situ generation of molecular iodine. It is filed as in vivo. The procedure: To determine the potential for molecular iodine to cause hyperthyroidism or hypothyroidism 111 women daily were dosed with either 0, 1.5, 3.0 or 6.0 mg of molecular iodine per day for six months. This study was performed under the guidance of the FDA (IND #56,523). The dosage form used relied upon in situ generation of molecular iodine as described in U.S. Pat. No. 5,885,592 as opposed to the aqueous iodine therapy of Table 5. The total exposure to molecular iodine in this study was 3.619 subject years.

The conditions of data set [3]: administered orally; cited from earlier work.
For data set [4], the system named is mammalian thyroid parameters. Conditions: orally administered; cited from earlier work.

Structures are written as SMILES.

In the case of `II` [I2, molecular iodine], the “Percentage of Initial Absorbance (OD522nm)” value (“Percentage” for short) in data set [1] (0.6 mg/mL I2 in mineral oil, Day 14) is given as 99.5%; in data set [1] (0.6 mg/mL I2 in mineral oil, Day 32), 99.1%; in data set [1] (0.6 mg/mL I2 in mineral oil, Day 56) it was 98.2%; in data set [1] (0.6 mg/mL I2 in mineral oil, Day 97), 97.8%; in data set [1] (0.6 mg/mL I2 in mineral oil, Day 143) it was 96.4%; in data set [1] (3.0 mg/mL I2 in mineral oil, Day 14), 100.6%. The “Percentage” value in data set [1] (3.0 mg/mL I2 in mineral oil, Day 32) is listed as 100.5%; in data set [1] (3.0 mg/mL I2 in mineral oil, Day 56) it was 100.4%; in data set [1] (3.0 mg/mL I2 in mineral oil, Day 97), 100.1%; in data set [1] (3.0 mg/mL I2 in mineral oil, Day 143), 100.8%; in data set [1] (6.0 mg/mL I2 in mineral oil, Day 14), 100.3%; in data set [1] (6.0 mg/mL I2 in mineral oil, Day 32), 100.2%. In addition, the “Percentage” value was 99.2% in data set [1] (6.0 mg/mL I2 in mineral oil, Day 56); 101.4% in data set [1] (6.0 mg/mL I2 in mineral oil, Day 97); 100.7% in data set [1] (6.0 mg/mL I2 in mineral oil, Day 143). The “change of absorbance with time (stability in mineral oil)” value in data set [2] is listed as “did not change with time”. The hyperthyroidism or hypothyroidism result with women is reported as “No hyperthyroidism or hypothyroidism was observed”. The “treatment-emergent adverse events, laboratory parameters, vital signs versus dose” value in the data set with women is “not associated with increases in incidence, severity and causality of treatment-emergent adverse events or clinically significant changes in laboratory parameters or vital signs”. Also, the “oral toxicity compared with iodide” value in data set [3] is “less toxic than iodide”.
Regarding `I` [iodide], the “concentration negatively affecting mammalian thyroid parameters, fold less than for a comparable effect from molecular iodine” value in data set [4] is reported as 10 fold.
